According to patent US11946070B2, “Method of reinforcing efficacy of stem cells using ethionamide” (SAMSUNG LIFE PUBLIC WELFARE FOUNDATION, priority 2019, dated 2024):

What was measured:
[1] = test system: human umbilical cord mesenchymal stem cells; conditions: ethionamide 50 or 100 μM; FIG. 4B
Experimental: (§1) First, a 3 to 4 cm piece of umbilical cord tissue was fragmented, and treated with a collagenase solution (Gibco, USA) for 60 to 90 minutes to digest an extracellular matrix, followed by digestion with 0.25% trypsin (Gibco, USA) for 30 minutes at 37° C. Subsequently, cells were obtained by adding fetal bovine serum (FBS; Biowest, USA) to the resulting product, and then performing centrifugation at 1000×g for 10 minutes, and then cultured using Minimum Essential Media (MEM; Gibco, USA) supplemented with 10% FBS and 50 μg/ml gentamycin (Gibco, USA) at 37° C. in a 5% CO2 atmosphere, and thus mesenchymal stem cells at passage 5 or 6 were used for an experiment.
(§2) 6×10^3 cells/cm 2 of the human umbilical cord mesenchymal stem cells prepared according to the method of Example 1 were seeded in a cell culture container, and simultaneously, ethionamide was treated at a concentration of 50 μM, 100 μM or 150 μM, followed by culturing for 72 hours.
Subsequently, the mesenchymal stem cells were treated with ethionamide by the same method as described above, and mRNA expression levels of antioxidation-related factors, such as HO-1, NQO1, GCLC and GCLM were measured.

[2] = test system: human umbilical cord mesenchymal stem cells; conditions: ethionamide 50 or 100 μM; FIG. 4A
Experimental: as §1, §2
To verify whether the expression level of a paracrine factor of mesenchymal stem cells is changed by ethionamide treatment, the mesenchymal stem cells were treated with ethionamide at 50 or 100 μM, and then expression levels of a brain-derived neurotrophic factor (BDNF), a vascular endothelial cell growth factor (VEGF), insulin-like growth factor-1 (IGF-1) and a hepatocyte growth factor (HGF), which are known as paracrine factors, were measured.

CCc1cc(C(N)=S)ccn1 [ethionamide, 2-ethylpyridine-4-carbothioamide]
GCLC mRNA expression level [1]: significantly increases in proportion to the treated concentration of ethionamide
GCLM mRNA expression level [1]: significantly increases in proportion to the treated concentration of ethionamide
HO-1 mRNA expression level [1]: significantly increases in proportion to the treated concentration of ethionamide
NQO1 mRNA expression level [1]: significantly increases in proportion to the treated concentration of ethionamide
BDNF expression level [2]: increases in proportion to the treated concentration of ethionamide
HGF expression level [2]: increases in proportion to the treated concentration of ethionamide
IGF-1 expression level [2]: increases in proportion to the treated concentration of ethionamide
VEGF expression level [2]: increases in proportion to the treated concentration of ethionamide
